Source: US20260166045A1, “COMBINATION THERAPY COMPRISING GSPT1-DIRECTED MOLECULAR GLUE DEGRADERS AND PI3K/AKT/mTOR PATHWAY INHIBITORS” (Monte Rosa Therapeutics, Inc., priority 2022, published 2026)

Experiments:
Experiment in all cases: CellTiter-Glo 2.0 cell viability, 7x7 combination dose response matrix, synergy scoring
Type in all cases: cell-based
ABC-1 cell line = settings: ABC-1, first compound 1.05-500 nM
Source text: (§1) A study was undertaken to determine whether the combination of a GSPT1-directed MGD and an inhibitor of the PI3K/AKT/mTOR pathway could be effective in killing cancer cells and whether certain combination could elicit a greater than additive effect on cell killing.
(§2) FIG. 1 is a flow diagram of the method used to assess cancer cell killing by a combination of a GSPT1-directed MGD and an inhibitor of the PI3K/AKT/mTOR pathway. Certain of the materials and equipment used in the studies are presented in Table 3 and the cell lines used are presented in Table 4.
(§3) All assays were run in triplicate. Each 384-well plate accommodated six 7×7 dose response matrices (FIG. 2). All compound handling was performed using an Echo 650 Series Acoustic Liquid Handler, which enables fully automated, precise, contact-free acoustic transfer in volumes as low as 2.5 nL.
(§4) The following protocol was used for cell plating: • 1. Warm media to room temperature or 37° C. • 2. Prepare complete phenol-free media by adding 10% FBS+1% Pen-Strep to RPMI 1640 Medium or DMEM. • 3. Aspirate media from T175 tissue culture flask and rinse with 10 ml PBS. • 4. Aspirate PBS and add 2 mL 0.25% trypsin. Incubate the flask at 37° C. for 5 min or until cells are detached. • 5. Add 10 mL complete media to the flask to neutralize the trypsin, then collect cells in a 50 mL conical tube. • 6. Centrifuge cells at 300 g for 5 min. Aspirate media and suspend cell pellet in fresh media. Use cell strainer to strain cells into a new 50 mL conical tube. • 7. […] Mix 100 uL cell suspension with 100 uL trypan blue (1:1) and pipette 20 μL of the mixture into each of 2 counting chambers on a slide. Insert slide. • b. Adjust focus and record the live cell count. At least 2 independent measurements should be taken. […] Cell viability should be greater than 90%. […] Dilute cell suspension to the desired concentration (20000 cells/mL) using complete phenol-free media. Prepare 10 mL cell suspension per plate+an extra 10 mL for priming the liquid handler. • 9. Dispense cells into 384-well plates using the liquid handler at 25 uL/well (500 cells/well). 3 plates should be prepared per compound plate to be treated. • 10. Cells should be dispensed into columns 1-23 only. Media only (no cells) should be dispensed into column 24. • 11. Allow plates to rest at RT for 30 minutes before transferring to the incubator. Incubate cells overnight at 37° C., 95% humidity, and 5% CO2.
(§5) Compound plates were prepared as follows using an Echo 650 Series Acoustic Liquid Handler. • 1. A compound plate containing 7-point dose responses of each compound to be treated is first prepared from stock compounds. • 2. The cell plates are treated with compounds according to the following maps, where the first compound is added across all six 7 by 7 dose response matrices, and its concentration varies by row (FIG. 2; top matrix), whereas the second compound varies for each dose response matrix, and its concentration varies by column (FIG. 2; bottom matrix). Each cell plate receives one Compound A and six different Compound Bs. • 3. To prepare a compound plate, 384-well PP plate with stock compounds (highest concentration) is prepared. Compounds are diluted 1:1000 in the cell plates, e.g. 10 mM on compound plate will be 10 uM on cell plate. A 384-well LDV plate with pre-determined volumes of DMSO is prepared. Echo is used to dilute stock compounds from PP plate into LDV plate to prepare 7-point dose responses.
(§6) Compounds were added to the cells and cell viability was measured after 72 hour incubation using CellTiter-Glo 2.0 Cell Viability Assay (Promega): • 1. For a compound addition, Echo is used to transfer 25 nL from the compound plate wells to the cell plates according to the plate maps shown in FIG. 2. Cell plates are treated in triplicate. Each well of the cell plate has 25 uL media (1:1000 dilution). Incubate cells post-treatment at 37° C., 95% humidity, and 5% CO2 for 72 hrs (step 106). • 2. […]

MCF7 cell line = settings: MCF7, first compound 4.1-1000 nM
Source text: as §1, §2, §3, §4, §5, §6

CAL51 cell line = settings: CAL51, first compound 4.1-1000 nM
Source text: as §1, §2, §3, §4, §5, §6

MDA-MB-231 cell line = test system: MDA-MB-231 cell line
Source text: as §1, §2, §3, §4, §5, §6

MDA-MB-157 cell line = settings: first compound 4.1-1000 nM
Source text: as §1, §2, §3, §4, §5, §6

[1] = combined with GNE-477 21-10000 nM
[2] = combined with KU-0063794 21-10000 nM
[3] = combined with M2698 21-10000 nM
[4] = combined with Alpelisib 41-10000 nM
[5] = combined with Capivasertib 41-10000 nM
[6] = combined with Everolimus 41-10000 nM
[7] = combined with GNE-477 41-10000 nM
[8] = combined with KU-0063794 41-10000 nM
[9] = combined with M2698 41-10000 nM
[10] = MDA-MB-231, combined with Alpelisib 41-10000 nM, first compound 4.1-1000 nM
[11] = MDA-MB-231, combined with Capivasertib 41-10000 nM, first compound 4.1-1000 nM
[12] = MDA-MB-231, combined with Everolimus 41-10000 nM, first compound 4.1-1000 nM
[13] = MDA-MB-231, combined with GNE-477 41-10000 nM, first compound 4.1-1000 nM
[14] = MDA-MB-231, combined with KU-0063794 41-10000 nM, first compound 4.1-1000 nM
[15] = MDA-MB-231, combined with M2698 41-10000 nM, first compound 4.1-1000 nM

O=C1CCC(N2Cc3ccc(COC(=O)Nc4cc(OC(F)(F)F)ccc4F)cc3C2=O)C(=O)N1 (stereo not shown) [Compound 1-1, [2-(2,6-dioxopiperidin-3-yl)-3-oxo-2,3-dihydro-1H-isoindol-5-yl]methyl N-[2-fluoro-5-(trifluoromethoxy)phenyl]carbamate]
Mean Bliss synergy score (ABC-1 cell line; [1]): 17.46 | Mean Loewe synergy score (ABC-1 cell line; [1]): 13.06 | Mean Bliss synergy score (ABC-1 cell line; [2]): 23.16 | Mean Loewe synergy score (ABC-1 cell line; [2]): 12.88 | Mean Bliss synergy score (ABC-1 cell line; [3]): 17.47 | Mean Loewe synergy score (ABC-1 cell line; [3]): 14.22 | Mean Bliss synergy score (MCF7 cell line; [4]): 1.44 | Mean Loewe synergy score (MCF7 cell line; [4]): 6.88 | Mean Bliss synergy score (MCF7 cell line; [5]): 1.60 | Mean Loewe synergy score (MCF7 cell line; [5]): 11.02 | Mean Bliss synergy score (MCF7 cell line; [6]): 6.39 | Mean Loewe synergy score (MCF7 cell line; [6]): 17.49 | Mean Bliss synergy score (MCF7 cell line; [7]): 8.82 | Mean Loewe synergy score (MCF7 cell line; [7]): 12.53 | Mean Bliss synergy score (MCF7 cell line; [8]): 9.78 | Mean Loewe synergy score (MCF7 cell line; [8]): 14.51 | Mean Bliss synergy score (MCF7 cell line; [9]): 8.47 | Mean Loewe synergy score (MCF7 cell line; [9]): 15.52 | Mean Bliss synergy score (CAL51 cell line; [4]): 14.61 | Mean Loewe synergy score (CAL51 cell line; [4]): 11.03 | Mean Bliss synergy score (CAL51 cell line; [5]): 32.32 | Mean Loewe synergy score (CAL51 cell line; [5]): 28.73 | Mean Bliss synergy score (CAL51 cell line; [6]): 29.55 | Mean Loewe synergy score (CAL51 cell line; [6]): 34.51 | Mean Bliss synergy score (CAL51 cell line; [7]): 12.11 | Mean Loewe synergy score (CAL51 cell line; [7]): 12.09 | Mean Bliss synergy score (CAL51 cell line; [8]): 20.80 | Mean Loewe synergy score (CAL51 cell line; [8]): 19.07 | Mean Bliss synergy score (CAL51 cell line; [9]): 18.29 | Mean Loewe synergy score (CAL51 cell line; [9]): 22.14 | Mean Bliss synergy score (MDA-MB-231 cell line; [10]): −0.82 | Mean Loewe synergy score (MDA-MB-231 cell line; [10]): 5.41 | Mean Bliss synergy score (MDA-MB-231 cell line; [11]): 6.44 | Mean Loewe synergy score (MDA-MB-231 cell line; [11]): 8.02 | Mean Bliss synergy score (MDA-MB-231 cell line; [12]): 12.28 | Mean Loewe synergy score (MDA-MB-231 cell line; [12]): 15.50 | Mean Bliss synergy score (MDA-MB-231 cell line; [13]): 4.62 | Mean Loewe synergy score (MDA-MB-231 cell line; [13]): 12.93 | Mean Bliss synergy score (MDA-MB-231 cell line; [14]): 4.80 | Mean Loewe synergy score (MDA-MB-231 cell line; [14]): 9.37 | Mean Bliss synergy score (MDA-MB-231 cell line; [15]): 3.71 | Mean Loewe synergy score (MDA-MB-231 cell line; [15]): 11.94 | Mean Bliss synergy score (MDA-MB-231 cell line; combined with M2698, MDA-MB-231 cell line, mean across dose response matrix, 72 hrs): 4.89 | Mean Bliss synergy score (MDA-MB-157 cell line; [4]): −2.43 | Mean Loewe synergy score (MDA-MB-157 cell line; [4]): 2.54 | Mean Bliss synergy score (MDA-MB-157 cell line; [5]): 3.83 | Mean Loewe synergy score (MDA-MB-157 cell line; [5]): 7.36 | Mean Bliss synergy score (MDA-MB-157 cell line; [6]): 1.61 | Mean Loewe synergy score (MDA-MB-157 cell line; [6]): 8.84 | Mean Bliss synergy score (MDA-MB-157 cell line; [7]): 1.72 | Mean Loewe synergy score (MDA-MB-157 cell line; [7]): 6.42 | Mean Bliss synergy score (MDA-MB-157 cell line; [8]): 2.25 | Mean Loewe synergy score (MDA-MB-157 cell line; [8]): 6.64 | Mean Bliss synergy score (MDA-MB-157 cell line; [9]): 4.89 | Mean Loewe synergy score (MDA-MB-157 cell line; [9]): 7.65
